Test results from patent US8952035B2, “Combination of anti-angiogenic substance and anti-tumor platinum complex” (Eisai R&D Management Co., Ltd., priority 2008, dated 2015).

Assays:
[1] = test system: Human non-small-cell lung cancer cell line A549; experiment: Combination use of E7080 and carboplatin in subcutaneous transplanted models (in vivo) of A549; design: species or system nude mouse; conditions: alone
Experimental: Human non-small-cell lung cancer cell line A549 (purchased from Dainippon Sumitomo Pharma Co., Ltd) was cultured in RPMI1640 (containing 10% FBS) in a 5% carbon dioxide gas incubator at 37° C. to about 80% confluence, and then the cells were collected with trypsin-EDTA. A 1×10^8 cells/mL suspension was prepared with a phosphate buffer, which was further added with matrigel matrix (purchased from Becton, Dickinson and Co.) to give a 5×10^7 cells/mL suspension, and each 0.2 mL of the resulting cell suspension was subcutaneously transplanted to a nude mouse at the side of its body. Eleven days after the transplantation, 4-(3-chloro-4-(cyclopropylaminocarbonyl)aminophenoxy)-7-methoxy-6-quinolinecarboxamide (E7080) was orally administered for 3 or 10 mg/kg, once a day for four weeks, while 100 mg/kg of carboplatin was administered into the tail vein on the first day. The major and minor axes of tumors were measured with Digimatic caliper (Mitsutoyo Corporation), and tumor volumes and relative tumor volumes were calculated according to the following formulae: Tumor Volume (TV)=Major axis of tumor(mm)×(Minor axis of tumor)^2(mm^2)/2 Relative Tumor Volume (RTV)=Tumor volume on measurement day/Tumor volume on the first administration day.
Tables 4 and 5 show anti-tumor effects obtained by the use of E7080 alone, the use of carboplatin alone and the combination use of E7080 and carboplatin in subcutaneous transplanted A549 models. The first day of administration was considered Day 1.

[2] = test system: Human non-small-cell lung cancer cell line A549; experiment: Combination use of E7080 and cisplatin in subcutaneous transplanted models (in vivo) of A549; design: species or system nude mouse; conditions: alone
Experimental: Human non-small-cell lung cancer cell line A549 (purchased from Dainippon Sumitomo Pharma Co., Ltd) was cultured in RPMI1640 (containing 10% FBS) in a 5% carbon dioxide gas incubator at 37° C. to about 80% confluence, and then the cells were collected with trypsin-EDTA. A 1×10^8 cells/mL suspension was prepared with a phosphate buffer, which was further added with matrigel matrix (purchased from Becton, Dickinson and Co.) to give a 5×10^7 cells/mL suspension, and each 0.2 mL of the resulting cell suspension was subcutaneously transplanted to a nude mouse at the side of its body. Eleven days after the transplantation, 4-(3-chloro-4-(cyclopropylaminocarbonyl)aminophenoxy)-7-methoxy-6-quinolinecarboxamide (hereinafter, also referred to as “[…]”) was orally administered for 3, 10 or 30 mg/kg, once a day for four weeks, while 10 mg/kg of cisplatin was administered into the tail vein once a day. The major and minor axes of tumors were measured with Digimatic caliper (Mitsutoyo Corporation), and tumor volumes and relative tumor volumes were calculated according to the following formulae: Tumor Volume (TV)=Major axis of tumor(mm)×(Minor axis of tumor)^2(mm^2)/2 Relative Tumor Volume (RTV)=Tumor volume on measurement day/Tumor volume on the first administration day. […] Tables 1, 2 and 3 show anti-tumor effects obtained by the use of […] alone, the use of cisplatin alone and the combination use of […] and cisplatin in subcutaneous transplanted A549 models. The first day of administration was considered Day 1.

[3] = E7080 3 mg/kg orally once a day for four weeks
[4] = E7080 10 mg/kg orally once a day for four weeks

N.N.O=C([O-])C1(C(=O)[O-])CCC1.[Pt+2] [Carboplatin, carboplatin, reference compound]
Relative tumor volume on Day 29 Average ± standard deviation ([1]; Carboplatin 100 mg/kg into the tail vein on the first day): 7.87 ± 1.05

N.N.[Cl][Pt][Cl] [Cisplatin, cisplatin, reference compound]
Relative tumor volume on Day 29 Average ± standard deviation ([2]; Cisplatin 10 mg/kg into the tail vein): 7.99 ± 0.88

COc1cc2nccc(Oc3ccc(NC(=O)NC4CC4)c(Cl)c3)c2cc1C(N)=O [E7080, 4-(3-chloro-4-(cyclopropylaminocarbonyl)aminophenoxy)-7-methoxy-6-quinolinecarboxamide]
Relative tumor volume on Day 29 Average ± standard deviation [1, 3]: 2.24 ± 0.34 | Relative tumor volume on Day 29 Average ± standard deviation [1, 4]: 1.81 ± 0.29 | Relative tumor volume on Day 29 Average ± standard deviation [2, 3]: 2.24 ± 0.34 | Relative tumor volume on Day 29 Average ± standard deviation [2, 4]: 1.81 ± 0.29 | Relative tumor volume on Day 29 Average ± standard deviation ([2]; E7080 30 mg/kg orally once a day for four weeks): 1.20 ± 0.21
